Measurements published in paper PMC11345828 (Journal of Medicinal Chemistry, 2024).
Converted amounts (≈) assume the structure as drawn. Where two headings read alike, the source gives them in different places.

Legend:
[1] = design: method as in PMID 30254093; conditions: species not given; cited from earlier work
Mcl-1 = Mcl-1 (Homo sapiens, UniProt Q07820); format: binding; conditions: read-out: TR-FRET Ki
Text: Mixtures containing vehicle without compound served as a negative control, while mixtures containing no protein served as a positive control.

K562 cell line = assay: cells; conditions: Homo sapiens, K562, read-out: K562 GI50
Procedure: (§1) NCI-H1048 were cultured in custom medium prepared by PanBioTech containing DMEM/F12 + 5% fetal calf serum, 0.005 mg/mL insulin, 0.01 mg/mL transferrin, 30 nM sodium selenite, 10 nM hydrocortisone, 10 nM β-estradiol and […] 2 mM L-glutamine.
(§2) Suspension cells were plated immediately before compound addition. Adherent cell lines were incubated overnight at 37 °C in a tissue culture incubator prior to compound addition. Compounds were added in triplicates using an HP D300e Digital Dispenser (Hewlett-Packard) or manually at the concentrations indicated and total volumes were normalized using dimethyl sulfoxide (DMSO) backfill, with final DMSO concentration of 0.5%. Control wells were treated with DMSO only.

NCI-H929 cell line = assay: cells; conditions: Homo sapiens
Procedure: as §1, §2

[2] = design: method as in PMID 37880389; conditions: including increases in patient troponin I levels; cited from earlier work
A427 cells = assay: cells; conditions: Homo sapiens, A-427, read-out: A427 GI50
Procedure: (§6) NCI-H1048 were cultured in custom medium prepared by PanBioTech containing DMEM/F12 + 5% fetal calf serum, 0.005 mg/mL insulin, 0.01 mg/mL transferrin, 30 nM sodium selenite, 10 nM hydrocortisone, 10 nM β-estradiol and 4.5 mM 2 mM L-glutamine. […] All cell lines were cultured at 37 °C with 5% CO2 in a humidified incubator and have been regularly tested negatively for mycoplasm contamination.

[3] = tested on: A427 cell line-derived NSCLC xenograft; assay: A427 NSCLC subcutaneous xenograft model; format: in vivo, mouse
Procedure: (§3) After fixation, tumor samples were embedded in paraffin blocks. Two-μm thick sections of each FFPE-block were prepared on a microtome, placed on glass slides and dewaxed. H&E staining was performed using Papanicolaous Solution 1a Harris′ Hematoxylin solution (Merck) and Shandon Eosin Y aqueous (Thermo) on the Gemini stainer (Thermo). […] Analysis was performed using HALO image analysis software 2.1 (Indica Laboratories). Quantification of Ki67 positivity was performed using multiplex IHC module with integrated AI based nucleus detection and a threshold set for positive nuclei was used. Viable tumor area was calculated from H&E staining using AI based classifier Densenet V2.
(§4) Female BomTac:NMRI-Foxn1nu mice and CB17/Icr-Prkdc(scid)/IcrCrl and were obtained from Taconic Denmark at an age of 6–8 weeks. After arrival of the local animal facility at Boehringer Ingelheim RCV GmbH & Co KG mice were allowed to adjust to housing conditions at least for 5 days before the start of the experiment. Mice were group-housed under pathogen-free and controlled environmental conditions and handled according to the institutional, governmental and European Union guidelines (Austrian Animal Protection Laws, GV-SOLAS and FELASA guidelines). Animal studies were approved by the internal ethics committee and the local governmental committee. To establish subcutaneous tumors mice were injected with 5 × 10^6 A427cells in Matrigel (CB17/Icr-Prkdc(scid)/IcrCrl), 1 × 10^6 NCI-H1048 cells in Matrigel (BomTac:NMRI-Foxn1nu and 5 × 10^6 NCI-H929 cells in Matrigel (CB17/Icr-Prkdc(scid)/IcrCrl). Tumor diameters were measured with a caliper three times a week. The volume of each tumor [in mm^3] was calculated according to the formula “tumor volume = length × diameter^2 × π/6.” To monitor side effects of treatment, mice were inspected daily for abnormalities and body weight was determined three times per week. Animals were sacrificed when the tumors reached a size of 1500 mm^3. […] Tumors were reported as regressing when the tumor volume at a given day was below the tumor volume at treatment start.

[4] = A427 NSCLC subcutaneous xenograft model; format: in vivo, mouse; conditions: female, CB17/Icr-Prkdc(scid)/IcrCrl, mouse, in vivo, single agent
Procedure: as §3, §4

NCI-H1048 SCLC xenograft = conditions: topotecan at 2.5 mg/kg q3/4d
Procedure: Female BomTac:NMRI-Foxn1nu mice and CB17/Icr-Prkdc(scid)/IcrCrl and were obtained from Taconic Denmark at an age of 6–8 weeks. After arrival of the local animal facility at Boehringer Ingelheim RCV GmbH & Co KG mice were allowed to adjust to housing conditions at least for 5 days before the start of the experiment. […] To establish subcutaneous tumors mice were injected with 5 × 10^6 A427cells in Matrigel (CB17/Icr-Prkdc(scid)/IcrCrl), 1 × 10^6 NCI-H1048 cells in Matrigel (BomTac:NMRI-Foxn1nu and 5 × 10^6 NCI-H929 cells in Matrigel (CB17/Icr-Prkdc(scid)/IcrCrl). Tumor diameters were measured with a caliper three times a week. The volume of each tumor [in mm^3] was calculated according to the formula “tumor volume = length × diameter^2 × π/6.” To monitor side effects of treatment, mice were inspected daily for abnormalities and body weight was determined three times per week. Animals were sacrificed when the tumors reached a size of 1500 mm^3. […] Tumors were reported as regressing when the tumor volume at a given day was below the tumor volume at treatment start.

NCI-H1048 cells = assay: cells; conditions: Homo sapiens, NCI-H1048, read-out: NCI-H1048 GI50
Procedure: as §6

[5] = Relative plasma protein binding by shift in EC50 in a caspase induction assay, minipig; format: in vitro ADME; conditions: minipig vs human
Dog IV PK = conditions: dosed at 0.5 mg/kg
Procedure: (§7) For PK analysis, mice and dogs were administered intravenously with compound formulated either in 10% ethanol and 10% Cremophor EL for mice or in 50% ethanol and 50% PEG500 for dogs. Plasma samples were obtained at predefined time points and compound concentrations in plasma were measured by quantitative HPLC-MS/MS using an internal standard. Calibration and quality control samples were prepared using blank plasma from untreated animals. Samples were precipitated with acetonitrile and injected into a HPLC system (Agilent 1200). […] The HPLC was interfaced by ESI operated in positive ionization mode to a triple quadrupole mass spectrometer (6500+ Triple Quad System, SCIEX) operated in multiple reaction monitoring mode. Chromatograms were analyzed with Analyst (SCIEX) and pharmacokinetic parameters were calculated by noncompartmental analysis using proprietary software.

OATP1B1/ABCC2 = assay: Transporter substrate assessment; format: in vitro ADME
Aqueous solubility = format: physicochemical; conditions: aqueous solution; at pH 7.8
Plasma protein binding = format: in vitro ADME; conditions: above the limit of quantification of the assay
[6] = Metabolic stability in hepatocytes, rat; format: in vitro ADME; conditions: incubated with 50% of human serum
Excretion study in rat = format: in vivo
[7] = Relative plasma protein binding by shift in EC50 in a caspase induction assay, dog; format: in vitro ADME; conditions: dog vs human
[8] = NCI-H929 subcutaneous multiple myeloma xenograft model; format: in vivo, mouse; conditions: female, CB17/Icr-Prkdc(scid)/IcrCrl, mouse, in vivo, single dose IV, NCI-H929 xenograft study
Procedure: (§5) Caspase-Glo 3/7 Assay (PROMEGA #G8090) was performed according to manufacturer’s instructions using 200 ng of sample lysate in a total volume of 100 μL per well. 100 μL of the GLO reagent were added, mixed, and incubated for 90 min at room temperature. The plate was measured on an EnSpireTM Plate reader (luminescence, 0.1s).
as §4

[9] = tested on: NCI-H929 cell line-derived MM xenograft; assay: as above; format: in vivo, mouse; conditions: 60 and 80 mg/kg, single dose IV
Procedure: as §5, §4

[10] = Metabolic stability in hepatocytes, human; format: in vitro ADME; conditions: incubated with 50% of human serum
Bcl-XL = Bcl-XL (Homo sapiens, UniProt Q07817); assay: FPA assay, Bcl-XL; format: binding
Chain of Bcl-XL (Q07817 whole entry, species assumed): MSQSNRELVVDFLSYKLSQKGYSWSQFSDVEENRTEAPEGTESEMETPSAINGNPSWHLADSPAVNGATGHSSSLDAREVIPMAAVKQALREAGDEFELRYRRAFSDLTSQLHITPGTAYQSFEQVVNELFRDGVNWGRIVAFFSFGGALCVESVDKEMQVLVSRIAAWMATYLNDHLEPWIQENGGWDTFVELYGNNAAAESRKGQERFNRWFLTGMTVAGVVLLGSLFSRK

[11] = Relative plasma protein binding by shift in EC50 in a caspase induction assay, rat; format: in vitro ADME; conditions: rat vs human
[12] = Metabolic stability in hepatocytes, mouse; format: in vitro ADME; conditions: incubated with 50% of human serum
Bcl-2 = Bcl-2 (Homo sapiens, UniProt P10415); assay: FPA assay, Bcl-2; format: binding
Chain of Bcl-2 (P10415 whole entry, species assumed): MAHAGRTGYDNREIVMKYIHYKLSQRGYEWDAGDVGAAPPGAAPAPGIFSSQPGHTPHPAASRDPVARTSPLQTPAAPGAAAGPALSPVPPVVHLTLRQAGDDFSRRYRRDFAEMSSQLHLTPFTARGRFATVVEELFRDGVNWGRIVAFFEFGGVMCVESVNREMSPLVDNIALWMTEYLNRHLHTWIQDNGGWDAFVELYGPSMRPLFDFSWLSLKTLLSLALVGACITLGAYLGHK

[13] = Metabolic stability in hepatocytes, minipig; format: in vitro ADME; conditions: incubated with 50% of human serum
[14] = Metabolic stability in hepatocytes, dog; format: in vitro ADME; conditions: incubated with 50% of human serum
[15] = NCI-H929, read-out: NCI-H929 GI50
[16] = docetaxel at 10 mg/kg q7d, single agent

Chain of Mcl-1 (Q07820 whole entry): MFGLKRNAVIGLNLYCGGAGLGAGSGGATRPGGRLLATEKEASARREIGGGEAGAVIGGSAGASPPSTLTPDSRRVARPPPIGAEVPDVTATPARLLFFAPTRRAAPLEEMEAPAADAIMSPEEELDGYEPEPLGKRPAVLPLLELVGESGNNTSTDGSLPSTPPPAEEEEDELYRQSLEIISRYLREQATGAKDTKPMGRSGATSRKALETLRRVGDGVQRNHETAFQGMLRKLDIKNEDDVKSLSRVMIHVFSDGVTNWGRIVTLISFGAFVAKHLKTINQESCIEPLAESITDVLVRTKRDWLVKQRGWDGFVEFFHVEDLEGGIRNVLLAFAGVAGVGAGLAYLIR
Procedure for Mouse IV PK: as §7

For `CO[C@H]1/C=C/C[C@H](C)[C@@H](C)S(=O)(=O)NC(=O)c2ccc3c(c2)N(C[C@@H]2CC[C@H]21)C[C@@]1(CCCc2cc(Cl)ccc21)CO3` [Compound 3], the T [1] is listed as 14 h and the Vss [1] is listed as 0.6 L/kg.

With `COCc1cc(N2C[C@@H](C)n3c(c(CCCOc4cc(C)c(Cl)c(C)c4)c4ccc(Cl)c(-c5c(C)nn(C)c5C)c43)C2=O)c2c(c1)cc(C(=O)O)n2C` [Compound 14, (R)-7-(7-Chloro-10-(3-(4-chloro-3,5-dimethylphenoxy)propyl)-4-methyl-1-oxo-6-(1,3,5-trimethyl-1H-pyrazol-4-yl)-3,4-dihydropyrazino[1,2-a]indol-2(1H)-yl)-5-(methoxymethyl)-1-methyl-1H-indole-2-carboxylic Acid] the Ki (Mcl-1) was 0.2 ± 0.065 nM, the GI50 (K562 cell line) was greater than 12500 nM and the GI50 (NCI-H929 cell line; NCI-H929, read-out: H929 GI50) was 112 nM. It also gave a GI50 (NCI-H929 cell line; [15]) of 122 ± 16 nM.

`Cc1cc(N2C[C@@H](C)n3c(c(CCCOc4cc(C)c(Cl)c(C)c4)c4ccc(Cl)c(-c5c(C)nn(C)c5C)c43)C2=O)c2c(c1)cc(C(=O)O)n2C` [Compound 11, (R)-7-(7-Chloro-10-(3-(4-chloro-3,5-dimethylphenoxy)propyl)-4-methyl-1-oxo-6-(1,3,5-trimethyl-1H-pyrazol-4-yl)-3,4-dihydropyrazino[1,2-a]indol-2(1H)-yl)-1,5-dimethyl-1H-indole-2-carboxylic Acid] gave a Ki (Mcl-1) of 0.205 ± 0.018 nM, a GI50 (K562 cell line) greater than 12500 nM and a GI50 (NCI-H929 cell line; [15]) of 140 ± 110 nM.

For `COc1cc(N2C[C@@H](C)n3c(c(CCCOc4cc(C)c(Cl)c(C)c4)c4ccc(Cl)c(-c5c(C)nn(C)c5C)c43)C2=O)c2c(c1)cc(C(=O)O)n2C` [Compound 12, (R)-7-(7-Chloro-10-(3-(4-chloro-3,5-dimethylphenoxy)propyl)-4-methyl-1-oxo-6-(1,3,5-trimethyl-1H-pyrazol-4-yl)-3,4-dihydropyrazino[1,2-a]indol-2(1H)-yl)-5-methoxy-1-methyl-1H-indole-2-carboxylic Acid], the Ki (Mcl-1) was 0.185 ± 0.027 nM, the GI50 (K562 cell line) was greater than 12500 nM and the GI50 (NCI-H929 cell line; [15]) was 211 ± 22 nM.

In the case of `COc1ccccc1-c1nccc(COc2ccccc2C[C@@H](Oc2ncnc3sc(-c4ccc(F)cc4)c(-c4ccc(OCCN5CCN(C)CC5)c(Cl)c4C)c23)C(=O)O)n1` [Compound 1], the “toxicity reported in the clinic” value [2] is given as “dose limiting toxicities”.

In the case of `CC(=O)O[C@@]12CO[C@@H]1C[C@H](O)[C@@]1(C)C(=O)[C@H](O)C3=C(C)[C@@H](OC(=O)[C@H](O)[C@@H](NC(=O)OC(C)(C)C)c4ccccc4)C[C@@](O)([C@@H](OC(=O)c4ccccc4)[C@H]21)C3(C)C` [Docetaxel, docetaxel], the GI50 (A427 cells) is reported as 4400 nM, the “TGI d21” value [3, 16] is reported as 112% and the “Tumor regressions d21” value [3, 16] is reported as 8 x/8. For the same molecule, the “tumor outgrowth began around day after treatment start” value ([3]; docetaxel at 10 mg/kg q7d alone) was roughly 15 days and the AUC ([4]; docetaxel at 10 mg/kg q7d) was 15.8 µM·h.

In the case of `CO[C@]1(CN2CCN3CCCC[C@@H]3C2)/C=C/C[C@H](C)[C@@H](C)S(=O)(=O)NC(=O)c2ccc3c(c2)N(C[C@@H]2CC[C@H]21)C[C@@]1(CCCc2cc(Cl)ccc21)CO3` [Compound 4], the “toxicity reported in the clinic” value [2] is listed as “dose limiting toxicities”.

In the case of `Cc1c(Cl)c2c(Cl)c(C)c1-c1c(-c3ccc(F)cc3)sc3ncnc(c13)O[C@@H](C(=O)O)Cc1cc(ccc1OCc1ccnc(-c3ccc(OC[C@H]4COCCO4)cc3)n1)OC[C@@H](CN1CCN(C)CC1)O2` [Compound 5], the “toxicity reported in the clinic” value [2] is listed as “dose limiting toxicities”.

Work on `COc1ccc(N2C[C@@H](C)n3c(c(CCCOc4cc(C)c(Cl)c(C)c4)c4ccc(Cl)c(-c5c(C)nn(C)c5C)c43)C2=O)c2c1cc(C(=O)O)n2C` [Compound 13, (R)-7-(7-Chloro-10-(3-(4-chloro-3,5-dimethylphenoxy)propyl)-4-methyl-1-oxo-6-(1,3,5-trimethyl-1H-pyrazol-4-yl)-3,4-dihydropyrazino[1,2-a]indol-2(1H)-yl)-4-methoxy-1-methyl-1H-indole-2-carboxylic Acid] yielded a Ki (Mcl-1) of 0.091 ± 0.003 nM, a GI50 (K562 cell line) greater than 7100 nM and a GI50 (NCI-H929 cell line; [15]) of 110 ± 38 nM.

In the case of `CC[C@@]1(O)C(=O)OCc2c1cc1n(c2=O)Cc2cc3c(CN(C)C)c(O)ccc3nc2-1` [Topotecan, topotecan], the “TGI d16” value (NCI-H1048 SCLC xenograft) is reported as 94%, the “Tumor regression d16” value (NCI-H1048 SCLC xenograft) is reported as 1 x/8 and the GI50 (NCI-H1048 cells) is reported as 14 nM.

With `COc1c(OCC2CCOCC2)cc(N2C[C@@H](C)n3c(c(CCCOc4cc(C)c(Cl)c(C)c4)c4ccc(Cl)c(-c5c(C)nc(C)nc5C)c43)C2=O)c2c1cc(C(=O)O)n2C` [Compound 26, (R)-7-(7-Chloro-10-(3-(4-chloro-3,5-dimethylphenoxy)propyl)-4-methyl-1-oxo-6-(2,4,6-trimethylpyrimidin-5-yl)-3,4-dihydropyrazino[1,2-a]indol-2(1H)-yl)-4-methoxy-1-methyl-5-((tetrahydro-2H-pyran-4-yl)methoxy)-1H-indole-2-carboxylic Acid] the “plasma protein binding lower than in human” value [5] was roughly 2 fold, the CL (Mouse IV PK; mouse IV, dosed at 25 mg/kg) was 2.2 mL/min/kg and the “reduction in clearance from compound 20” value (Mouse IV PK; mouse IV, relative to compound 20) was 20 fold. For the same molecule, the Vd (Mouse IV PK; mouse, plasma, iv, 25 mg/kg) was less than 0.1 L/kg, the clearance (Mouse IV PK; mouse, plasma, iv, 25 mg/kg) was 2.2 mL/min/kg and the half-life (Mouse IV PK; mouse, plasma, iv, 25 mg/kg) was 3.7 h. The AUC/Dose (Dog IV PK) was 3860 nM*h/mpk, the CL (Dog IV PK) was 5.2 mL/min/kg and the “CL (% hep blood flow)” value (Dog IV PK) was 17 % hep blood flow. For the same molecule, the “substrate of OATP1B1/ABCC2” value (OATP1B1/ABCC2) was “substrate”, the solubility (Aqueous solubility) was 15 mg/mL (≈ 17.3 mM) and the fraction unbound (Plasma protein binding) was less than 0.002. For the same molecule, the “metabolic stability in hepatocytes” value [6] was 22 % Qh, the “biliary clearance as share of the total clearance” value (Excretion study in rat) was 60–75% and the “plasma protein binding lower than in human” value [7] was roughly 2 fold. For the same molecule, the AUC ([8]; 60 mg/kg) was 442 µM·h, the AUC ([8]; 80 mg/kg) was 635 µM·h and the “change in the median weight of the mice” value [9] was “no significant change”. The “metabolic stability in hepatocytes” value [10] was 12 % Qh, the Ki (Bcl-XL) was 36000 nM and the AUC ([4]; 26 at 60 mg/kg q7d IV) was 552 µM·h. For the same molecule, the “plasma protein binding lower than human” value [11] was 3 fold, the “metabolic stability in hepatocytes” value [12] was 40 % Qh and the Ki (Bcl-2) was 1800 nM. The “metabolic stability in hepatocytes” value [13] was 35 % Qh and the “metabolic stability in hepatocytes” value [14] was 19 % Qh.
